Broadly, the AC50 is the concentration at which the activity in the assay is half-maximal. In general, CC50 refers to the concentration at which the toxic effect on the cells reaches its halfway point.

Activity calls are given as the source filed them.

Experiment [1] deals with Streptococcus sp. 'group A'. Description: growth inhibition of control SK(-) GAS strain, dose response, counter-screen for streptokinase expression inhibitor project, luminescence, kanamycin, BacTiterGlo, confirmation (AID 1900). The experiment is classed as functional, organism-based. In general terms: The purpose of a counterscreen is to sort out artefacts and off-target activity.

Experiment [2] has as its target Induced myeloid leukemia cell differentiation protein Mcl-1 (Homo sapiens, UniProt Q07820). The format is functional.
In a further experiment the test system is Streptococcus. Description: Group A Streptococcus viability loss, dose response, counter-screen for streptokinase expression inhibitor project, luminescence, BacTiterGlo (AID 1915).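 Note: potency for reduction of bacterial viability or growth.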 The format is functional, organism-based.
Experiment [3] in a line: Luminescence Cell-Based Dose Retest to Confirm Inhibitors of Cancer Stem Cells. [Related pubchem assays (depositor defined):AID2717, AID2721]. The format is functional. The note with it: Homo sapiens.
In experiment [4] the target is DNA (cytosine-5)-methyltransferase 1 (Homo sapiens, UniProt P26358). The experiment can be described thus: DNMT1 methyltransferase inhibitors, confirmation, biochemical, fluorescent molecular beacon (AID 602386). The experiment is classed as functional.
Chain of DNA (cytosine-5)-methyltransferase 1 (P26358 whole entry): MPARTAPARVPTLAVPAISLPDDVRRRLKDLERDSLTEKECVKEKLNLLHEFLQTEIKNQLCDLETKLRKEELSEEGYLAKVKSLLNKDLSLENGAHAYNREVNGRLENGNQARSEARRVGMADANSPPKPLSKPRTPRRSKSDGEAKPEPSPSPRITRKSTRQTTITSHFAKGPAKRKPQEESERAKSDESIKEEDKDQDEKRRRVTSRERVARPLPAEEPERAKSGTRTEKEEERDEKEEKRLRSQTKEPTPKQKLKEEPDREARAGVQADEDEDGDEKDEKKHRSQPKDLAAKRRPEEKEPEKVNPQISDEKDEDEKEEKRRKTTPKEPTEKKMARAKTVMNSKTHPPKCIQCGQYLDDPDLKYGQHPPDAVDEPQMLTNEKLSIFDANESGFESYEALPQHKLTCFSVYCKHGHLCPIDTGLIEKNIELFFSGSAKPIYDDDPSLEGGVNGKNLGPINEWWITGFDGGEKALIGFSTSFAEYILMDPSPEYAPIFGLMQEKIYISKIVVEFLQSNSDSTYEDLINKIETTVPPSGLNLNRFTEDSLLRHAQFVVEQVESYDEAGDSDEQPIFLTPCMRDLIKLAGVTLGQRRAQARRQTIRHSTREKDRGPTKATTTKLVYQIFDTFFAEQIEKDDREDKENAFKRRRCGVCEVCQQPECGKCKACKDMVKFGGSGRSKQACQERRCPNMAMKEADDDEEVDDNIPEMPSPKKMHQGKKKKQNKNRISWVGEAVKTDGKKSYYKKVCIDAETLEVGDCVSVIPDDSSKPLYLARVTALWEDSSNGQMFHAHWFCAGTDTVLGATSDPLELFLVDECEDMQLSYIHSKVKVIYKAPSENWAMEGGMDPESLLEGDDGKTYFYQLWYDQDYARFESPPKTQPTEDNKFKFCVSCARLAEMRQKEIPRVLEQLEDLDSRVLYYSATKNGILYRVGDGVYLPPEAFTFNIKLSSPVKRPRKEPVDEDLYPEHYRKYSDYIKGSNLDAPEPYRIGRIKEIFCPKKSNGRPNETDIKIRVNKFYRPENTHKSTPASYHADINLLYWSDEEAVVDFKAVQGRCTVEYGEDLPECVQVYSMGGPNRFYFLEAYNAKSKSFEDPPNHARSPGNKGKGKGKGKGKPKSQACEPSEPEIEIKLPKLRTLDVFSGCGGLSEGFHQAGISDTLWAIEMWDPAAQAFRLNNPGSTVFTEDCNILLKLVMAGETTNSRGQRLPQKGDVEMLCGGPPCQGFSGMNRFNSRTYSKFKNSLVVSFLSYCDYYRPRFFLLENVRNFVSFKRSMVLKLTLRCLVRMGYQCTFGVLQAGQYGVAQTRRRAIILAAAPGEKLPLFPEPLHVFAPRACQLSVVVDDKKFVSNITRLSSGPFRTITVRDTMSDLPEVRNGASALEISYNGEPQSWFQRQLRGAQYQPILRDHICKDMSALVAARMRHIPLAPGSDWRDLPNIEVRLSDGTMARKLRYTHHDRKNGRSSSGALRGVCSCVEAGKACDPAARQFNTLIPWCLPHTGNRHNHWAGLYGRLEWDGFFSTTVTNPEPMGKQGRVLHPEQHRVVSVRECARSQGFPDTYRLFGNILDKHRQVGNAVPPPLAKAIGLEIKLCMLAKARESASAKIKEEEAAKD
A short description of experiment [5]: ADAM10 inhibitors, peptide cleavage, dose response, biochemical, QFRET (AID 743254).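 Note: ADAM10 enzyme with the DM2 quenched FRET peptide as substrate; EDANS fluorescence gain as the protease cuts the substrate; inhibitor potency against ADAM10 proteolytic activity.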
The target of experiment [6] is Disintegrin and metalloproteinase domain-containing protein 17 (Homo sapiens, UniProt P78536). Description: ADAM17 protease inhibitors, dose response, counter-screen for ADAM10 exosite inhibitor project, biochemical, quenched FRET substrate (AID 743253).
Chain of Disintegrin and metalloproteinase domain-containing protein 17 (P78536 whole entry, the tested form may be a part): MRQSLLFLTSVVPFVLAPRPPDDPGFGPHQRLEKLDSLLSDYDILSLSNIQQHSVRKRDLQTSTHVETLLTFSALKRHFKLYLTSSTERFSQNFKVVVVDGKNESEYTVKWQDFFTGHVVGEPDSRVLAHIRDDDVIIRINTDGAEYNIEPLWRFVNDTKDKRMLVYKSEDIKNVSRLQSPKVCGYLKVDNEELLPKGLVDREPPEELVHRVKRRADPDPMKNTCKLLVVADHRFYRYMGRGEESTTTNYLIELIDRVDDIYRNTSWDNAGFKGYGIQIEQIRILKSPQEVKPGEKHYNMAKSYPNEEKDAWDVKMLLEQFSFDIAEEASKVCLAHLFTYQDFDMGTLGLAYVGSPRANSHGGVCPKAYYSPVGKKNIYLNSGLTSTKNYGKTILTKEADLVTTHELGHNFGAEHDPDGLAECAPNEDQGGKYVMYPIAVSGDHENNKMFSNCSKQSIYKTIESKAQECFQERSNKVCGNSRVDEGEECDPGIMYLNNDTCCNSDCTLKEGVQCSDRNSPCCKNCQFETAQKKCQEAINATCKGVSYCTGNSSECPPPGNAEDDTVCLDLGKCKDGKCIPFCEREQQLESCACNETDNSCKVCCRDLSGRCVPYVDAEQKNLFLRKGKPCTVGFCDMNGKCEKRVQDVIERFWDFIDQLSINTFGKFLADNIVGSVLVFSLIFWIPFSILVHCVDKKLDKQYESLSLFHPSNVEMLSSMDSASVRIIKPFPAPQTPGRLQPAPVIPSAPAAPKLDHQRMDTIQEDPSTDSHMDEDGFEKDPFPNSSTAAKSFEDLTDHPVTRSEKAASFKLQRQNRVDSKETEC
Experiment [7] deals with Aryl hydrocarbon receptor (Homo sapiens, UniProt P35869). The note with it: Potency.
The target of experiment [8] is Adenosylmethionine-8-amino-7-oxononanoate aminotransferase (Mycobacterium tuberculosis, UniProt P9WQ81). The experiment can be described thus: Mycobacterium tuberculosis BioA enzyme inhibitor Measured in Biochemical System Using Plate Reader - 2163-02_Inhibitor_Dose_CherryPick_Activity. The experiment is classed as functional, Mycobacterium tuberculosis UT205.
Chain of Adenosylmethionine-8-amino-7-oxononanoate aminotransferase (P9WQ81 whole entry): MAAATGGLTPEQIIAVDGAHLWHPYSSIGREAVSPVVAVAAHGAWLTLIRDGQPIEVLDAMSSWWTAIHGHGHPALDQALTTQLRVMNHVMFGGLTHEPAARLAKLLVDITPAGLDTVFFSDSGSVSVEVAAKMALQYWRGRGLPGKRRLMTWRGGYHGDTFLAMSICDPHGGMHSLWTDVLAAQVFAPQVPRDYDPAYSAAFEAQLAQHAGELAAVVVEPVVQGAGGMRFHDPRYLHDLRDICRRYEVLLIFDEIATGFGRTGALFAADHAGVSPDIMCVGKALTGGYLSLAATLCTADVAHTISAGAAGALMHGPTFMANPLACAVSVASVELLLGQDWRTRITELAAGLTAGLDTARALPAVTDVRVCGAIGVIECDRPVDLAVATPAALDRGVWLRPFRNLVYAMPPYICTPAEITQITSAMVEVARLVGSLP
Experiment [9] is described as follows: Luminescence Cell-Based Dose Confirmation HTS to Identify Activators of 5'UTR Stem-Loop Driven Alpha-Synuclein mRNA Translation in H4 Neuroglioblastoma Cells. [Related pubchem assays: 1829 (Project Summary), 1814 (Primary HTS)]. The format is functional.
Experiment [10] is described as follows: Luminescence Cell-Based Dose Response HTS to Identify Activators of Luciferase Translation or Activity in H4 […] Cells. [Related pubchem assays: 1829 (Project Summary), 1814 (Primary HTS)]. The format is functional.
For a further experiment, the system named is H4. The experiment can be described thus: Luminescence Cell-Based Dose Response HTS to Identify Activators of 5'UTR Stem-Loop Driven Prion Protein mRNA Translation in H4 Neuroglioblastoma Cells. [Related pubchem assays: 1829 (Project Summary), 1814 (Primary HTS)]. The experiment is classed as functional. Particulars: Homo sapiens.
A short description of experiment [11]: HeLa cell cytotoxicity, dose response, cytotoxicity control for MgcRacGAP inhibitor project (AID 624300). The format is functional.
Experiment [12] concerns the target T1, Rac GTPase-activating protein 1 (Homo sapiens, UniProt Q9H0H5).
T1 sequence (Q9H0H5 whole entry): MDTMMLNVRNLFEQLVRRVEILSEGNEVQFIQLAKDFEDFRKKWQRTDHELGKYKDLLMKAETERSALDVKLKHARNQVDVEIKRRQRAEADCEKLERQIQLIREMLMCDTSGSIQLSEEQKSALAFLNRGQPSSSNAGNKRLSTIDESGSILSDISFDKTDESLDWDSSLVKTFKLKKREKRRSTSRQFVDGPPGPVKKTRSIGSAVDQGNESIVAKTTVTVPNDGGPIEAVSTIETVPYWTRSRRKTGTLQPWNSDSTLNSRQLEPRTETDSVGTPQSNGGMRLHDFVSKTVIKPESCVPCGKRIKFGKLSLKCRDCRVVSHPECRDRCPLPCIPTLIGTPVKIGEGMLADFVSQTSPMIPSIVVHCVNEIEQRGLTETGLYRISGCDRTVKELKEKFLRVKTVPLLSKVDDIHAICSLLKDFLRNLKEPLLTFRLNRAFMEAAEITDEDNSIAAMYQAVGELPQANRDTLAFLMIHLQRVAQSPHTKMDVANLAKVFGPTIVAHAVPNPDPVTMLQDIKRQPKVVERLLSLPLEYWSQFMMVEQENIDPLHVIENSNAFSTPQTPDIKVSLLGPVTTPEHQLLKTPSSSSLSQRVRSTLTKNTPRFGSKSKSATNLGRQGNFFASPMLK
Description: MgcRacGAP GTPase-activating activity inhibitors, confirmation, biochemical, ADP Hunter fluorescence, primary and confirmatory (AID 624330). The format is functional.

The target of experiment [13] is T2, ATP-dependent translocase ABCB1 (Homo sapiens, UniProt P08183). The experiment can be described thus: ABCG2 efflux pump inhibitor potency, dose response, Ig-MXP3 cells, JC-1, flow cytometry, set 2 (AID 504566).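 Note: flow cytometry median green fluorescence of retained JC-1 dye; potency of efflux pump inhibition measured as rising substrate retention.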 The format is functional. Particulars: read-out: EC50_MICROM_.
T2 sequence (P08183 whole entry): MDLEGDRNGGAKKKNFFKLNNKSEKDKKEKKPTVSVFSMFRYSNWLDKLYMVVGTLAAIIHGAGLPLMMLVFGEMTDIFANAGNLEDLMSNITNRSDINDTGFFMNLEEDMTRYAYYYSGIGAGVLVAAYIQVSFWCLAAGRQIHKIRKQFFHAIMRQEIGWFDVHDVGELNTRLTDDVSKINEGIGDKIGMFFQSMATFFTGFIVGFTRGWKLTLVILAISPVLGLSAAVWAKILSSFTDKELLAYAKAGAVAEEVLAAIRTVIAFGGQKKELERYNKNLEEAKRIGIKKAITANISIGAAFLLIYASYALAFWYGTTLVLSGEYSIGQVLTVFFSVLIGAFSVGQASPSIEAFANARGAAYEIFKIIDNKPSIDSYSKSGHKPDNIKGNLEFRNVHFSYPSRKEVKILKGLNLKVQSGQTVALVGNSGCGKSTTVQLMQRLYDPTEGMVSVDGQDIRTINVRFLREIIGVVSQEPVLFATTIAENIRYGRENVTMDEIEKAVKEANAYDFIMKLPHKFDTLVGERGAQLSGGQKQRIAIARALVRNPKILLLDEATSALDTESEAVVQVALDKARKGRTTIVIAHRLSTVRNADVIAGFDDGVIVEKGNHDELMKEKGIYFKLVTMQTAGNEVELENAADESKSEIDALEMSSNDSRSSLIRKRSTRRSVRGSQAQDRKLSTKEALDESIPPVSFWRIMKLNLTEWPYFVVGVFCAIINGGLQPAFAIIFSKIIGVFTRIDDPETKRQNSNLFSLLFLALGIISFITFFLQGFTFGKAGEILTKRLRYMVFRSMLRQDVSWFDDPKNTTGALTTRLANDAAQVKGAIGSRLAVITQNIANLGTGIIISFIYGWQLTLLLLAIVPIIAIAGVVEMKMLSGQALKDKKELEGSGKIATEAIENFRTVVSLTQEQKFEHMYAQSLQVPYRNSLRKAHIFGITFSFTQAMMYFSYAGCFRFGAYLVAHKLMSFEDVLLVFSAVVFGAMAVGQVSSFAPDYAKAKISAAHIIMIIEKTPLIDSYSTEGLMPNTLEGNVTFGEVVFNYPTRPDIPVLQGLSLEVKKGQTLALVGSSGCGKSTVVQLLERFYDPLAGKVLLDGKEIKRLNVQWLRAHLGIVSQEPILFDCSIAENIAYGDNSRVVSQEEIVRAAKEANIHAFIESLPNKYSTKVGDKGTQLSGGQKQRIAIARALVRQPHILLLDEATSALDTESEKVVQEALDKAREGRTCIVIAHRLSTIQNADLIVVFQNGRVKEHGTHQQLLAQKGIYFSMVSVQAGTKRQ
The target of experiment [14] is T2, ATP-dependent translocase ABCB1. Description: ABCB1 efflux inhibitor potency, dose response, Jurkat-DNR cells, JC-1, flow cytometry, set 2 (AID 504569).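 Note: potency of pump inhibitors that raise cellular JC-1 green fluorescence up to the nicardipine level.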 The format is functional. Particulars: read-out: EC50_MICROM_. (A flow cytometer gives signals particle by particle.)
The target of experiment [15] is T3, Low molecular weight phosphotyrosine protein phosphatase (Homo sapiens, UniProt P24666).
T3 sequence (P24666 whole entry): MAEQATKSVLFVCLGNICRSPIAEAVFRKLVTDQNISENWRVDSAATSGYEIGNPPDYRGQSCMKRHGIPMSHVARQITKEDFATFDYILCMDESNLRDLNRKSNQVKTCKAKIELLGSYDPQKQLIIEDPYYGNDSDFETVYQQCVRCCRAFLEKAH
The format is functional. Particulars: read-out: IC50_Mean.

For experiment [16], the target named is T3, Low molecular weight phosphotyrosine protein phosphatase. The experiment is classed as functional. Particulars: read-out: IC50_Mean. The source holds these as a separate data set.

Chain of Induced myeloid leukemia cell differentiation protein Mcl-1 (Q07820 whole entry): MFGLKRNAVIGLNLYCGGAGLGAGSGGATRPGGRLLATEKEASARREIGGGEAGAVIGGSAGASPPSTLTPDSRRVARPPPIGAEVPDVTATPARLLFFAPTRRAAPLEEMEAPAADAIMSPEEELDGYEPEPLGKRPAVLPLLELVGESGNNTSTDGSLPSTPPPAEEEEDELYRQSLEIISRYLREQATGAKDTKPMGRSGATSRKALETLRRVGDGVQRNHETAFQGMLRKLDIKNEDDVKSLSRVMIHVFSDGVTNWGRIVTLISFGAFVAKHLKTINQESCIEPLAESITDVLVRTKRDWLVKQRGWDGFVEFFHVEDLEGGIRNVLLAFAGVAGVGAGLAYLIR

Turning to `Cc1ccc(C2C(/C=C3/SC(=S)NC3=O)=C(c3cccs3)Oc3ccccc32)cc1` (stereo not drawn), the EC50 in [1] is 0.649 µM (active); in the experiment on Streptococcus, 1.11 µM (active). The IC50 is 3.63 µM (active) in experiment [2], 3.74 µM (active) in [4], 16.7 µM (inactive) in experiment [5] and 33.7 µM (inactive) in experiment [6]. Further, in [3], the AC50 is 0.874 µM (active).
Consider `O=C=Nc1ccc(Cl)c(Cl)c1`, for which the AC50 in experiment [7] is 56.2 µM (inconclusive).
For the compound `CC(=O)c1ccc(NC(=O)COC(=O)Cc2ccsc2)cc1`, the AC50 in experiment [8] was 6.97 µM (active).
In the case of `COc1ccc(/C=N/Nc2ncnc3sc4c(c23)CCCC4)cc1O`, the values for the EC50 (in experiment [9]; in experiment [10]; with H4) were 13.4 µM (active), 6.72 µM (active) and 8.38 µM (active), respectively. In [11], the CC50 was 70.4 µM (active). For the same compound, the IC50 in experiment [12] was 56.1 µM (active).
Regarding `O=C(c1ccoc1)N1CCN(c2cc(-c3ccccc3F)nc3cc(-c4cccc(Cl)c4)nn23)CC1`, the EC50 was 1.59 µM (active) in experiment [13] and 5.75 µM (active) in experiment [14].
In the case of `CCc1nc(N)nc(N)c1-c1ccc(Cl)c(N=[N+]=[N-])c1`, the values for the IC50 in [15] and in [16] were 24.2 µM (inactive) and 14.3 µM (active), respectively.

The values are drawn from ChEMBL document CHEMBL1201862, “PubChem BioAssay data set” (2004).
